Data as given in patent US9795626B2, “Cancer therapy using miRNAs” (THE UNIVERSITY OF WESTERN AUSTRALIA, priority 2012, dated 2017).
Where “and” joins values, the source holds several entries; their conditions need not be identical. Equal values may be shown once.

Experiments:
[1] = test system: melanoma cell lines (SK-MEL-28, WM266-4, MM96L and A2058); assay: Drug sensitivity assay (cell viability after 4 days of drug); format: cell-based; conditions: 96 h, range over the melanoma cell lines
[2] = test system: SK-MEL-28 melanoma cells; assay: Cell viability assay (MTS) after miRNA transfection, with or without drug; Bliss synergy analysis; conditions: observed fractional inhibition of the combination
Method: (§1) Cells were seeded in 96-well plates at a density of 2.5×10^3 cells per well and transfected with miRNA precursor molecules as above. Cell viability was measured 5 days after transfection using CellTitre 96 Aqueous One Solution Cell Proliferation Assay Kit (MTS assay) and a FLUOstar OPTIMA microplate reader. For synergy analysis between drugs and miR-7-5p, cells were plated as above and drug or DMSO was added 3 days after transfection with miR-7-5p or miR-NC for 4 days, at which time cell viability was measured (7 days after transfection).
(§2) Statistical significance was calculated using Student's t test (one-tailed, unpaired) and the level of significance was set at p<0.05. Drug sensitivity (IC50) was calculated using GraphPad Software (GraphPad Prism, version 5.04). The Bliss additivism model was used for synergy analysis. […] Here, Ebliss is the fractional inhibition expected if the combination of miR-7-5p and drug B was exactly additive. If the experimentally measured fractional inhibition is greater than Ebliss, the combination is synergistic.

[3] = test system: MM96L melanoma cells; assay: as above; conditions: observed fractional inhibition of the combination
Method: as §1, §2

[4] = test system: A2058 melanoma cells; assay: as above; conditions: observed fractional inhibition of the combination
Method: as §1, §2

[5] = test system: WM266-4 melanoma cells; assay: Drug sensitivity assay (cell viability after 4 days of drug); format: cell-based; conditions: Homo sapiens, WM 266-4, 96 h, WM266-4 (wild type p53)
[6] = test system: A2058 melanoma cells; assay: as above; format: cell-based; conditions: Homo sapiens, 96 h, A2058 (wild type p53)
[7] = test system: WM266-4 melanoma cells; assay: Cell viability assay (MTS) after miRNA transfection, with or without drug; Bliss synergy analysis; conditions: [miR-7-5p] 5 nM + [drug] 50 μM, observed fractional inhibition of the combination
Method: as §1, §2

[8] = [miR-7-5p] 5 nM + [drug] 100 nM
[9] = [miR-7-5p] 5 nM + [drug] 150 μM

Row | Structure (SMILES) | IC50 [1] | EObs ([2]; [miR-7-5p] 5 nM + [drug] 50 nM) | EObs [2, 8] | EObs ([3]; [miR-7-5p] 2.5 nM^ + [drug] 50 nM) | EObs [4, 8] | IC50 [5] | IC50 [6] | EObs [7] | EObs [3, 9] | EObs ([3]; [miR-7-5p] 5 nM + [drug] 500 μM) | EObs ([4]; [miR-7-5p] 5 nM + [drug] 50 μM) | EObs [4, 9]
1 | CCCS(=O)(=O)Nc1ccc(F)c(C(=O)c2c[nH]c3ncc(-c4ccc(Cl)cc4)cc23)c1F [PLX4032, vemurafenib] | 0.08 to 0.23 µM | 0.661 | 0.773 | 0.972 and 0.803 and 0.547 | 0.855 and 0.853 and 0.790 |  |  |  |  |  |  | 
2 | Cn1nnc2c(C(N)=O)ncn2c1=O [TMZ, temozolomide] |  |  |  |  |  | 73.1 µM | 167 µM | 0.748 and 0.732 | 0.747 | 0.864 and 0.878 | 0.680 | 0.811 and 0.633
